In patent US11166924B2, “N-methyl-d-aspartate receptor allosteric modulators and methods for their use” (Qingdao Primedicine Pharmaceutical Company, Ltd., priority 2016, dated 2021):

Columns and labels:
[1] = system: GABAR; experiment: GABA-induced currents in cultured hippocampal neurons; assay type: cell-based
Method: Whole cell patch-clamp recordings were performed under voltage-clamp mode using an Axopatch 200B or 1D patch-clamp amplifier (Molecular Devices). Whole-cell currents were recorded at a holding potential of −60 mV unless indicated elsewhere, and signals were filtered at 2 kHz, digitized at 10 kHz (Digidata 1322A). Recording pipettes (3-5 MΩ) were filled with the intracellular solution that contained (mM): CsCl 140, HEPES 10, Mg-ATP 4, QX-314 5, pH 7.20; osmolarity, 290-295 mOsm. BAPTA (10 mM) was added in the intracellular solution (otherwise specified). The coverslips were continuously superfused with the extracellular solution containing (mM): NaCl 140, KCl 5.4, HEPES 10, CaCl2 1.3, glucose 20, pH 7.4; osmolarity, 305-315 mOsm. NMDA, GABA or AMPA induced currents were either applied by NMDA, GABA, AMPA either through perfusion fast-step (Warner Instruments). […]
Next, the inventor evaluated the selectivity profile for Npam02 on two other key ionotropic receptors of the central nervous system (CNS): α-amino-3-hydroxy-5-methyl-4-isoxazolepropionic acid receptor AMPAR, which are known to be a non-NMDA type ionotropic transmembrane receptor for glutamate that mediates fast synaptic transmission in the central nervous system (CNS) and GABA receptors which are the principal inhibitory ligand-gated ion channel receptor. […]

[2] = molecular target: T1, GluN2B NMDARs in hippocampal slices (Mus musculus, UniProt P35438+Q01097); experiment: Slice recordings, GluN2B component of synaptic NMDAR currents; details: FIG. 18
T1 construct: from tissue; host or cells: mouse hippocampal slices, CA1 pyramidal neurons
T1 sequence (Q01097 27-1482, other chains not shown): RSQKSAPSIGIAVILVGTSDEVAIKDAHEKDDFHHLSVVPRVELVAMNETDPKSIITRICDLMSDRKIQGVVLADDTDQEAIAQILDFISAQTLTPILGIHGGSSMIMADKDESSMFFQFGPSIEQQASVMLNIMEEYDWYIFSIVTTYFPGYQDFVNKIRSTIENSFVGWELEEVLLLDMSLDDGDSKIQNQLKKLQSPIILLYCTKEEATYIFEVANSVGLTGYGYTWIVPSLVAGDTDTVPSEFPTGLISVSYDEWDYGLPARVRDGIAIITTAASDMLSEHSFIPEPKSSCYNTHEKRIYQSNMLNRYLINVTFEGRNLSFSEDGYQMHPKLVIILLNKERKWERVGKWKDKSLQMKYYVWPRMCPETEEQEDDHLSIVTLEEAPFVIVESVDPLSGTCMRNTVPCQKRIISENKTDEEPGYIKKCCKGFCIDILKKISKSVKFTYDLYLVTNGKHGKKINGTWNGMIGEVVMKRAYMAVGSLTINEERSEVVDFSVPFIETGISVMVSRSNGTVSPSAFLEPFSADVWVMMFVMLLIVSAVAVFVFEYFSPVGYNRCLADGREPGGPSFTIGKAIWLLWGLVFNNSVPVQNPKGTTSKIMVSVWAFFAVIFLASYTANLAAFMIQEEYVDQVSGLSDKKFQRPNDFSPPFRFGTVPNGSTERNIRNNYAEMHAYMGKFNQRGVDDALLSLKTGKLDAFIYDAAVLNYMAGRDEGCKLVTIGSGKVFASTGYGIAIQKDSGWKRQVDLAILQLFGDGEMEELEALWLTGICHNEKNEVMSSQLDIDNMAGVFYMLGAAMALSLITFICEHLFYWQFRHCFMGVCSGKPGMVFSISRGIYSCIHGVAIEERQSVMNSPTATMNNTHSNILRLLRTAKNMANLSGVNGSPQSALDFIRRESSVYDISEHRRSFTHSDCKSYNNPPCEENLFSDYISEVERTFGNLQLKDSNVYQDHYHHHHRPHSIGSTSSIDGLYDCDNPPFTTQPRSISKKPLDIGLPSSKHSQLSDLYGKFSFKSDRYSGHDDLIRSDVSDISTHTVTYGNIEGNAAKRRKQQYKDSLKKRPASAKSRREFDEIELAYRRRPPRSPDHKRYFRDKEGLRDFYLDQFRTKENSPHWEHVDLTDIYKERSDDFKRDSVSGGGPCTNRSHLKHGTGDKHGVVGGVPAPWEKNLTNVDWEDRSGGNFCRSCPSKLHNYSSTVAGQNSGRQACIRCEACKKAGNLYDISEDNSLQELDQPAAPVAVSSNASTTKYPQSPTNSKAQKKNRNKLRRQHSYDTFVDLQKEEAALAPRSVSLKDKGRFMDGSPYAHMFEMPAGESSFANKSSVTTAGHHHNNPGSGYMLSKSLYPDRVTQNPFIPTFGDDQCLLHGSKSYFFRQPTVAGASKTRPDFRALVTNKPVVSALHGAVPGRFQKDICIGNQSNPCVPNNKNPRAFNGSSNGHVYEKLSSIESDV
Description: 6-8 week old C57/Bl6 mice or rats underwent cervical dislocation followed by decapitation. The brain was immediately transferred to an ice cold NMDG-based cutting solution consisting of: (in mM): 120 NMDG, 2.5 KCl, 1.2 NaH2PO4, 25 NaHCO3, 1.0 CaCl2, 7.0 MgCl2, 2.4 Na-pyruvate, 1.3 Na-ascorbate, 20 D-glucose with pH adjusted to 7.35 using HCl acid (unless stated, all chemicals and drugs were purchased from Sigma or BioShop, Canada). The hippocampus was dissected out and transverse hippocampal slices (400 μm) were obtained using a manual tissue chopper (Stoelting, Wood Dale, Ill., USA). Slices recovered in a heated (30° C.) incubating chamber for 1 hr which contained ACSF composed of (in mM): 124 NaCl, 3 KCl, 1.25 NaH2PO4, 1 MgSO47H2O, 2 CaCl2), 26 NaHCO3 and 15 D-glucose which was bubbled continuously with carbogen (95% O2/5% CO2) (pH to 7.3). After 30 additional minutes at room temperature, slices were transferred to a submerged recording chamber and were perfused continuously with carbogenated ACSF (2-3 ml/min). Whole-cell recordings of CA1 pyramidal neurons were performed using the “blind” method with a MultiClamp 700B amplifier. EPSCs (excitatory post synaptic currents) were elicited by stimulating the SC pathway. For isolation of NMDAR currents, cells were voltage clamped at +40 mV. […]

[3] = system: rat model of middle cerebral artery occlusion (MCAo); experiment: Cerebral ischemia (MCAo) infarct volume; assay type: in vivo
Description: Adult male Sprague Dawley rats weighting ˜200 g were anesthetized, and the middle cerebral artery (MCA) was exposed by making a craniotomy window (2 mm in diameter) 1 mm rostral to the anterior junction of the zygoma and the squamosal bone. We used the suture ligation method to achieve three-vessel occlusion. The exposed MCA was ligated with a square knot using a 10-0 nylon suture. Next, the bilateral common carotid arteries (CCAs) were clamped with nontraumatic arterial clips. Successful surgery was confirmed by a marked drop in regional cerebral blood flow, monitored by a laser Doppler flowmeter (PF-5010, Periflux system; Perimed AB). After 90 min ischemia, the suture and clips were removed to allow instant reperfusion. Experimental rats were subdivided into groups to receive different doses of Npam43 or saline/vehicle (as indicated) via femoral vein injection. 2,3,5-Triphenyltetrazolium chloride (TTC) was used to evaluate infarct size in stained brain sections. […]
The rats were anesthetized, with body temperature maintained at 37.0±0.5° C. with a heating pad during imaging. […] The non-infarct areas were drawn manually from slice to slice and the volumes were measured with Voxtool analysis software (General Electric). The infarct size was quantified by subtracting the non-infarct volume of the ischemic hemisphere from the total volume of the contralateral hemisphere. […]

| SMILES | Effect on GABAR mediated currents [1] | Effect on GluN2B NMDARs [2] | Infarct size, long term evaluation point ([3]; 7 days, MRI scanning, FIG. 25) | Infarct volume ([3]; MCAo rats, compared to vehicle/saline, 24 h post ischemia (FIG. 24)) |
| --- | --- | --- | --- | --- |
| COc1cccc(/C=N/NC(=O)c2ccccc2C)c1O [Npam02, (E)-N′-(2-hydroxy-3-methoxybenzylidene)-2-methylbenzohydrazide] | no observable effects | – | – | – |
| CCOc1cc(Cl)c(Cl)c(/C=N/NC(=O)c2ccccc2Br)c1O [Npam43, (E)-2-bromo-N′-(2,3-dichloro-5-ethoxy-6-hydroxybenzylidene)benzohydrazide] | – | no effects on the GluN2B NMDARs | reduces infarct size | reduces infarct volume |
